Measurements: ChEMBL document CHEMBL4364294 (J Med Chem, 2019)

Experiment: Intrinsic clearance in human liver microsomes
Format: ADME, Microsome
Conditions: read-out: CLH

Row | Compound | predicted hepatic clearance [mL/min/kg]
1 | OC(CC1c2ccccc2-c2cncn21)C1CCCCC1 (stereo not drawn) | 18
2 | OC(CC1c2ccccc2-c2cncn21)C1CCC(F)(F)CC1 (stereo not drawn) | 14.6
3 | O[C@@H](C[C@H]1c2c(F)cccc2-c2cncn21)[C@H]1CC[C@H](O)CC1 | 6.2
